In PubChem BioAssay AID493130 (Broad Institute, 2011):
Results filed as inconclusive are left out. Active and inactive are the calls of the source.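 Rule for the calls: active = signal-lowering compounds whose fitted half-maximal concentration is at most ten times their highest tested dose; inconclusive = flat fit between -30 and -70%, or poor fit; inactive = flat within 30%, signal rising, or potency beyond limit.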

Molecular target: POS-1 (Caenorhabditis elegans) binding to mex-3 RNA
Assay: inhibitors of POS-1/mex-3 RNA binding, dose response, counter-screen for MEX-5 RNA-binding inhibitor project, biochemical, fluorescence polarization, cherry-picked samples, set 2 (AID 493130);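 note: POS-1 as maltose binding protein fusion made in E. coli with FITC RNA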
Settings: POS-1/mex-3 RNA fluorescence polarization, 1 h

SMILES | AC50
CCOC(=O)C1=C(CSc2nc3c(cc2C#N)CN(C)CC3)OC(N)=C(C#N)C1c1ccncc1 (stereo unspecified) | 7.33 µM
N=C1CCC(=N)c2c1c(O)c1ccccc1c2O | 5.58 µM
CCN(CC)c1ccc(/C=C(/C#N)c2nc3ccc(C)cc3[nH]2)c(OC(C)C)c1 | 1.61 µM
COC(=O)c1cc2c(-c3ccccc3)c(C)c3ccccn3c-2c1C(=O)OC | > 10 µM (inactive)
O=[N+]([O-])c1ccccc1NC(=S)N/N=C/c1ccc(O)c(O)c1 | 5.42 µM
O=C(Nc1nc2c(s1)CN(Cc1ccccc1)CC2)c1cccc(S(=O)(=O)N2CCc3ccccc32)c1 | 7.79 µM
C=CCn1c(=O)[nH]c2nc3cc(N=CN(C)C)c(C)cc3nc2c1=O | 7.27 µM
O=C(N/N=C/c1c(O)n(Cc2ccccc2)c(=O)[nH]c1=O)c1ccccc1O | 4.84 µM
O=C1c2ccccc2C(=O)N1/N=C/c1ccc(O)c(O)c1O | 2.31 µM
O=c1[nH]n2c(=O)c3c([nH]c2c1N=Nc1ccccc1)CCC3 | 0.677 µM
Cc1cc(C(=O)NNC(=O)CCCCC(=O)NNC(=O)c2cc(C)[nH]n2)n[nH]1 | > 10 µM (inactive)
O=C1C(Cl)=C(NC(=O)c2ccccc2)C(=O)C(Cl)=C1NC(=O)c1ccccc1 | 10.2 µM
Nc1c(C(=O)c2cccs2)sc2nsc(SCCN3CCCCC3)c12 | 6.39 µM
CCCC1=NN2C(=N)/C(=C\c3ccc(SCc4ccco4)o3)C(=O)N=C2S1 | 0.699 µM
O=c1[nH]c(/C=C/c2cccc3ccccc23)nc2ccccc12 | > 10 µM (inactive)

Same assay, conditions: POS-1/mex-3 RNA fluorescence polarization, 1 h; at 10 µM (top of the series)

SMILES | activity change, negative = inhibition
COc1cc(/C=C2/C(C)=C(C#N)c3nc(N)c(C#N)c(C)c32)ccc1OCC(=O)O | inactive
CC(=O)Nc1ccc(/C=N\NC(=O)CNS(=O)(=O)c2ccc([N+](=O)[O-])cc2)cc1 | inactive
O=C(C1=NN(c2ccccc2)C2C(=O)N(c3ccccc3)C(=O)C12)c1ccccc1 (stereo unspecified) | inactive
CCCCN(C(=O)c1ccc(C)o1)c1c(N)n(CCCC)c(=O)[nH]c1=O | inactive
CCOC(=O)c1sc2nc(C)[nH]c(=S)c2c1C | inactive
CC/C(=N/Nc1cccc(C)c1)c1cnnc(SC)n1 | inactive
CC1=CC2=NC(=O)/C(=C\c3cn(C)c4ccccc34)C(=N)N2O1 | inactive
N=c1c(C(=O)NCC2CCCO2)cc2c(=O)n3ccccc3nc2n1Cc1ccc(Cl)cc1 (stereo unspecified) | inactive
CCOC(=O)c1ccc(NC(=O)C(=O)NCc2ccc(/C=C(/C#N)C(=O)NCCOC)o2)cc1 | inactive
CCNC(=S)NNC(=O)c1ccccn1 | inactive
c1cncc(C2CC(c3cccs3)n3ncnc3N2)c1 (stereo unspecified) | inactive
CC1(C)CC(=O)C2=C(C1)OC(N)=C(C#N)C2c1ccccc1[N+](=O)[O-] (stereo unspecified) | inactive
FC(F)(F)c1ccc(Cl)c(-n2c(-c3cc(-c4ccco4)[nH]n3)n[nH]c2=S)c1 | inactive
O=c1[nH]c(=S)n(-c2ccccc2F)c(O)c1C=Nc1ccc(N2CCOCC2)cc1 | inactive
COCC1CCN(Cc2c(C(=O)N3CCN(C4CCCCC4)CC3)nc3ccccn23)C1 (stereo unspecified) | inactive
CC(=O)O[C@@H]1[C@@H](O)[C@@H](O)[C@H](Oc2c(-c3ccc(O)cc3)oc3c(CC=C(C)C)c(O)cc(O)c3c2=O)O[C@H]1C | inactive
CN1CCc2nc3sc(C(=O)NC(C)(C)C)c(N)c3cc2C1 | inactive
NC1=C([N+](=O)[O-])C(c2ccc3c(c2)OCO3)C2=C(CCCC2=O)O1 (stereo unspecified) | inactive
CN(C)c1ncnc2c1NC1=C(S2)C(=NCCCC(=O)O)CC(C)(C)C1 | inactive
Cc1ccc(C(=O)/C=C/c2ccccc2[N+](=O)[O-])cc1 | inactive
CCN(CC)c1ccc2nc3ccccc3[n+](CC)c2c1 | inactive
Cc1ccc(O)c(-c2cc(C(=O)Nc3ccc(S(=O)(=O)Nc4nc(C)cc(C)n4)cc3)[nH]n2)c1 | inactive
N#CC(C(=O)NC1CC1)c1nc2ccccc2nc1N1CCN(C/C=C/c2ccccc2)CC1 (stereo unspecified) | inactive
CN(N)N=Nc1nc2c([nH]1)c(=O)n(C)c(=O)n2C | inactive
CC(=Nc1ccc(C)cc1)c1sc2ccccc2c1O | inactive
CS(=O)(=O)Nc1ccc(-c2ccc(/C=C3\SC(N)=NC3=O)o2)cc1 | inactive

SMILES | activity change, negative = inhibition
CCOc1ccccc1N=NC1C(=O)N(C(N)=S)N=C1C (stereo unspecified) | inactive
Oc1c(C=Nc2ccccc2)sc(=S)n1Cc1ccccc1 | inactive
CC(C)C(=O)OCC(=O)Nc1ccc2c(c1)CCC2 | inactive
COc1ccccc1CN1CC(C(=O)NCCN(C)CCc2ccccc2)CCC1=O (stereo unspecified) | inactive
CS(=O)(=O)c1ccccc1C(=O)Nc1cccc2ncccc12 | inactive
CC(C)c1cc[n+](-c2nc([O-])sc2C=O)cc1 | inactive
C#CCN1C(=O)S/C(=C\c2ccc(-c3ccc(Cl)c(C(=O)O)c3)o2)C1=O | inactive
Cc1ccc(S(=O)(=O)c2cc3c(=O)n4ccccc4nc3n(Cc3ccco3)c2=N)cc1C | inactive
Cc1cc(C(=O)N/N=C/c2ccc(-c3ccc([N+](=O)[O-])cc3C)o2)n[nH]1 | inactive
O=C(Nc1ccc(OCc2ccccc2)cc1)Nc1cccnc1 | inactive
COc1ccc2c(c1OC)CN1CCc3cc4c(cc3[C@@H]1[C@@H]2O)OCO4 | inactive
CN1CN(C)c2ccc([N+](=O)[O-])c3cccc1c23 | inactive
CCN1CCN(Cc2c(C(=O)N/N=C(\C)c3ccc(Cl)c(Cl)c3)nnn2-c2nonc2N)CC1 | inactive
CN1C(=O)C(=Cc2sc(=O)n(-c3ccccc3)c2N(C)C)C(=O)N(C)C1=O | inactive
Cc1cc(/C=C2\SC(=S)N(Cc3ccco3)C2=O)c(C)n1-c1ccccc1 | inactive
C=CCn1c(Cc2nc3ccc(Cl)cc3[nH]2)n[nH]c1=S | inactive
COC/C=C/C1=CC2=CC(=O)C(C)(O)C(=O)C2=CO1 (stereo unspecified) | inactive
CCc1ccc(S(=O)(=O)/N=C2\C=C(Nc3ccc(C(=O)O)cc3)C(=O)c3ccccc32)cc1 | inactive
COc1ccc2cc3c(N)c(C(=O)NCc4ccco4)sc3nc2c1 | inactive
COC(=O)CCC(=O)NC(=S)Nc1sc(C)c(C)c1C(N)=O | inactive
COc1cc(/C=C2/C(=O)NN(c3ccc(Cl)c(Cl)c3)C2=O)cc([N+](=O)[O-])c1O | inactive
O=S(=O)(O)c1nc2ccccc2n1Cc1ccc(Cl)cc1Cl | inactive
Cn1c(CNC(=O)c2ccc(F)cc2)cc2ccccc21 | inactive
CCS(=O)(=O)c1ccc2oc(=O)c(/C=C(\O)c3ccc(Cl)cc3)nc2c1 | inactive
Oc1ccc(C2C=C(c3ccc(F)cc3)Nc3ncnn32)cc1 (stereo unspecified) | inactive
